Values quoted from earlier work in patent US20080286363A1, “Pharmaceutical Compositions for the Treatment of Inflammatory and Obstructive Airways Diseases” (priority 2005, published 2008).

Conditions: aerosol formulation, single administration of a metered dose, asthma

In the case of `C[N+]1(C)CCC(OC(=O)C(O)(c2ccccc2)C2CCCC2)C1.[Br-]` (racemic) [Compound B1, 3-[(Cyclopentyl-hydroxyphenylacetyl)oxy]-1,1-dimethylpyrrolidinium bromide], the bronchodilation duration is given as “up to 12 hours”.
